Assays:
[1] = tested on: cancer cells; assay: killing of cancer cells, cytostatic effect confirmed using the crystal violet test; assay type: cell-based; conditions: endoperoxide in liposomes
From the text: A further molecule 22 forming endoperoxide has an additional hydroxyl group which with the cage wall can form hydrogen bridges (preferably in PVB nanoparticles, in PVB films or ethyl cellulose nanoparticles), which likewise causes an increase in the decomposition times.

[2] = PVB matrix, 37° C.

| SMILES | killing of the cancer cells [1] | decomposition time of curve 27, factor longer than DMN in liquids ([2]; after renewed endoperoxide formation, slow component (curve 27)) [factor] | half-life from curve 24 greater than that for DMN in organic solvent ([2]; curve 24 versus DMN in organic solvent) | decomposition time from curve 25, factor greater ([2]; first decomposition, slow component (curve 25), compared with DMN in organic solvent) [factor] |
| --- | --- | --- | --- | --- |
| CC12C=CC(C)(OO1)c1ccccc12 [DMN endoperoxide, 1,4-dimethylnaphthalene endoperoxide] | not | > 30 | approximately 30% | ~6 |
| Cc1cccc2c1C1(C)C=CC2(C)OO1 (centres unmarked) [TMN endoperoxide] | killing of the cancer cells was ascertained | – | – | – |

Reference: US9969617B2, “Material system containing endoperoxide with adaption of decomposition, and applications” (priority 2009, dated 2018)
